Measured values reported in patent US6130228A, “Polycyclic compounds” (priority 1995, dated 2000).
Where two headings read alike, the source gives them in different places.

How the values were obtained:
5-HT (serotonin) uptake = type: biochemical, rat (Sprague Dawley)
Description: (§1) One male rat (Sprague Dawley) weighing approx. 200-250 g was sacrificed by cervical dislocation. The brain was dissected out and the cerebellum discarded. The brain was then weighed and 10 ml ice cold sucrose (0.32M) added per gram tissue. […] The pellet was discarded and the supernatant retained (crude synaptosomal preparation).
(§2) All tubes were set up in triplicate. […] 100 μl of the prepared synaptosomal preparation was added to each tube and incubated for 5 minutes in a shaking water bath at 37° C. Any reaction was stopped by plunging the tubes into an ice water bath. ^3 H NA (10^-7 M) or ^3 H 5-HT ([…]) was added to each tube and incubated for 5 minutes in a shaking water bath at 37° C. Any reaction was stopped by plunging the tubes into an ice-water bath. Accumulated monoamines were collected using a Brandell Cell Harvester under mild vacuum. Filters were rinsed (2×) using 4 ml of ice-cold 0.9% saline. Scintillation fluid was added (4 ml/tube). Radioactivity was measured on a scintillation counter.
(§3) Non-specific values were subtracted from total values. The control was taken as 100%. Drug effects were calculated as a percentage of control inhibitor value. A graph of log of drug concentration versus % control was plotted and IC50 values were calculated by interpolation.

[1] = system: noradrenaline (NA) uptake; assay: Monoamine Uptake Inhibition Assay, noradrenaline (synaptosomal preparation); type: biochemical, rat (Sprague Dawley); details: Table 1; form SALT; n = 5; read-out: IC50 NA UPTAKE
Description: as §1, §2, §3

[2] = target: T1, Acetylcholinesterase (AChE) (Rattus norvegicus, UniProt P37136); assay: biochemical; type: biochemical, Male Rats (Sprague Dawley), brain
T1 construct: The brain was removed and homogenised; from tissue; host or cells: rat brain (male Sprague Dawley), Triton X100 detergent supernatant of the EDTA-buffer pellet
T1 sequence (P37136 32-614): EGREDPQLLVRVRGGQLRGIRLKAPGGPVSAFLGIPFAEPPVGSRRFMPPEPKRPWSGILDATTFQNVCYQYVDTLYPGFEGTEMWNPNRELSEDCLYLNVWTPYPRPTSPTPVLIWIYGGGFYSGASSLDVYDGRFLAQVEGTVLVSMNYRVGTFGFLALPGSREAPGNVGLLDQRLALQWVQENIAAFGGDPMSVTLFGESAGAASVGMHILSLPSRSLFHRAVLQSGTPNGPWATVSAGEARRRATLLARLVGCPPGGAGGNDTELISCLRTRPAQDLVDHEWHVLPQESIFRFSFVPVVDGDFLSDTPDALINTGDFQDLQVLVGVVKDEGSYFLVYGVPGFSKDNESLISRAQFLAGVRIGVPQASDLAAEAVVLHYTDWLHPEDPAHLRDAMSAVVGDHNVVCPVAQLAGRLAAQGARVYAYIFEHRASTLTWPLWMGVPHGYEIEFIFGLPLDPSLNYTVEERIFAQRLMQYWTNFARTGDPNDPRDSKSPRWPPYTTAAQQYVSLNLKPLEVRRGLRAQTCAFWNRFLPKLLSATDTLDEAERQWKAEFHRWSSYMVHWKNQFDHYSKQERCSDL
Description: (i) Enzyme Source for AChE
5 Male Rats (Sprague Dawley) weighing approx 250 g were killed by CO2 overdose and cervical dislocation.
The brain was removed and homogenised (9 strokes at 840 rpm with 4 volumes of phosphate buffer pH 7.4+10 mM (EDTA) and centrifuged at 27,000 g for 30 minutes.
The supernatant was discarded and the pellet resuspended in phosphate buffer with 10 mM EDTA+1- Triton X100 (2 ml/g wet weight). The crude homogenate was centrifuged at 27,000 g for 30-40 minutes.
The pellet was discarded and the supernatant was dispensed into 0.5 ml aliquots and stored at -20° C. until required.
Phosphate Buffer (0.1M. pH 7.4)
Made up to 500 ml with distilled H2 O, pH 7.4.
0.5 ml aliquots of brain (enzyme solution) as prepared above were thawed out. 2 ml of phosphate buffer was added to each aliquot. 2 ml of the enzyme solution was incubated with 2 ml PDS for 60 minutes at 0° C. The composition of blank, control and test solutions are given below:
0.9 ml phosphate buffer (0.1 M, pH 7.4)
0.85 ml phosphate buffer (0.1M, pH 7.4)
0.05 ml acetylthiocholine (5.2 mM)
(§4) 0.8 ml phosphate buffer (0.1M, pH 7.4)
0.05 ml Acetylthiocholine 5.2 mM
Change in absorbance was measured at 30 second intervals for 3 minutes at […]. The control was taken as 100%. Inhibitor was calculated as a percentage of the control. A graph of Log of inhibitor conc. versus % control was plotted and IC5. values calculated by interpolation.

[3] = target: T2, Butyrylcholinesterase (BChE) (Equus caballus, UniProt P81908); assay: biochemical; details: for IC50: Table 2
T2 construct: purchased Sigma c-7512
T2 sequence (P81908 whole entry): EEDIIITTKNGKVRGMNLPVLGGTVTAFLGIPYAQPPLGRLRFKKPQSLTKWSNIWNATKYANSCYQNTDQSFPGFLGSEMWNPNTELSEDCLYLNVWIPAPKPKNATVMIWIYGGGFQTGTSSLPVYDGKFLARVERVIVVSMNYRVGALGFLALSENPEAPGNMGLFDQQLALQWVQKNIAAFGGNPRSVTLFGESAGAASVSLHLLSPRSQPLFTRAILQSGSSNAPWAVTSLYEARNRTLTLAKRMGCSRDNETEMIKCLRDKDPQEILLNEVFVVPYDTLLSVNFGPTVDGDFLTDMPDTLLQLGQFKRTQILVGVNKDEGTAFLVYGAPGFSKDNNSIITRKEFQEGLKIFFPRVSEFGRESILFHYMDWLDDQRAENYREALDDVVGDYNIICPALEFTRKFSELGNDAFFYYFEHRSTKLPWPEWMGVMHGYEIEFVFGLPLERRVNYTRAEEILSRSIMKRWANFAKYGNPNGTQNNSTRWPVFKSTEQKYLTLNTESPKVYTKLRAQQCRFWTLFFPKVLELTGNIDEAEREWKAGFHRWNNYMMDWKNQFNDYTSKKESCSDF
Description: The following components were utilised:
Phosphate Buffer (0.1M, pH 7.4)
Made up to 500 ml with distilled H2 O, pH 7.4
1 ml of enzyme solution (i), was incubated with 2 ml PDS for 60 minutes at 0° C.
Components of the assay blank, controls and test solutions are provided below:
0.9 ml phosphate buffer (0.1M, pH 7.4)
0.85 ml phosphate buffer (0.1 M, pH 7.4)
0.05 ml Acetylthiocholine (5.2 mM)
as §4
Control was taken as 100%. Inhibitor was calculated as a percentage of control. A graph of Log of inhibitor conc. versus % control was plotted and IC50 values calculated by interpolation.

[4] = Table 3, read-out: 5-HT UPTAKE INHIBITION

Compound	IC50 (5-HT (serotonin) uptake; Table 1, form SALT, n = 5, read-out: IC50 5HT UPTAKE) [µM]	IC50 [1] [µM]	IC50 ([2]; Table 1, form SALT, ±SEM, n = 5, read-out: IC50 AChE) [µM]	IC50 (5-HT (serotonin) uptake; Table 1, form BASE, n = 5, read-out: IC50 5HT UPTAKE) [µM]	IC50 ([2]; Table 1, form BASE, ±SEM, n = 5, read-out: IC50 AChE) [µM]	BChE TACRINE RATIO [3]	IC50 ([3]; read-out: BChE IC50) [µM]	5-HT UPTAKE INHIBITION TACRINE RATIO (5-HT (serotonin) uptake)	IC50 (5-HT (serotonin) uptake; [4]) [µM]	AChE TACRINE RATIO [2]	IC50 ([2]; Table 2, read-out: AChE IC50) [µM]	IC50 ([3]; NB = No Block at 100 μM, read-out: BChE IC50 (no block)) [µM]	IC50 [2] [µM]	AChE TACRINE RATIO ([2]; Table 2, relative to tacrine = 1.000)
Nc1c2c(nc3ccccc13)-c1ccccc1C2 [Compound 2, 6-Amino-4,5-benzo-[5H]-cyclopenta-[1,2-b]-quinoline]	2.2	2.3	0.35	–	–	–	–	–	–	–	–	–	–	–
Nc1c2c(nc3ccccc13)CCCc1ccccc1-2 [Compound 7, 13-Amino 6.7 dihydro[1H] benz [7] annuleno [4,5-b]quinoline]	–	–	–	0.02	38.2	–	–	–	–	–	–	–	–	–
Nc1c2c(nc3cc(F)c(F)cc13)CCC2 [Compound 8, 9-amino-6,7-difluoro-2,3-dihydro-1H -cyclopenta [1,2-b] quinoline]	–	–	–	–	–	0.003	10	3.800	2	2.229	0.035	–	–	–
Nc1c2c(nc3cc(F)cc(F)c13)CCC2 [Compound 9, 9-Amino-6,8-difluoro-2.3-dihydro-1H -cyclopenta[1,2-b] quinoline]	–	–	–	–	–	0.018	1.4	0.146	52	0.650	0.12	–	–	–
Nc1c2c(nc3ccc(F)c(F)c13)CCC2 [Compound 10, 9-Amino-7,8-difluoro-2,3-dihydro-1-H-cyclopenta-[1,2-b] quinoline]	–	–	–	–	–	0.002	15	0.029	260	0.190	0.41	–	–	–
Nc1c2c(nc3cc(Cl)ccc13)CCC2 [Compound 17, 9-amino-6-chloro-2,3-dihydro-1H-cyclopenta[b] quinoline]	–	–	–	–	–	0.19	0.13	5.067	1.5	8.041	0.01	–	–	–
Nc1c2c(nc3ccc(F)cc13)CCCC2 [Compound 18, 9-Amino-7-fluoro-1,2,3,4-tetrahydro-acridine]	–	–	–	–	–	0.061	0.41	3.304	2.3	0.390	0.2	–	–	–
Cc1ccc(C)c2c(N)c3c(nc12)CCC3 [Compound 20, 9-Amino-5,8-dimethyl-2,3-dihydro-1H -cyclopenta [1,2-b] quinoline]	–	–	–	–	–	0.018	1.4	1.949	3.9	0.041	1.9	–	–	–
Cc1cccc2c(N)c3c(nc12)CCC3 [Compound 21, 9-Amino-5-methyl-2.3-dihydro-1H -cyclopenta[1,2-b] quinoline]	–	–	–	–	–	0.002	13.8	0.633	12	0.024	3.3	–	–	–
Cc1cc(C)c2nc3c(c(N)c2c1)CCC3 [Compound 23, 9-Amino-5-7-Dimethyl-2,3-dihydro-1H-cyclopenta [1,2-b] quinoline]	–	–	–	–	–	–	52	0.962	7.9	0.004	19	–	–	–
Cc1ccc2nc3c(c(N)c2c1)CCC3 [Compound 24, 9-Amino-7-methyl-2,3-dihydro-1H-cyclopenta [1,2-b] quinoline]	–	–	–	–	–	0.023	1.1	0.447	17	0.012	6.7	–	–	–
Nc1c2c(nc3ccc(Br)cc13)CCC2 [Compound 25, 9-Amino-7-bromo-2,3-dihydro-1H-cyclopenta-[1,2-b] quinoline]	–	–	–	–	–	0.013	1.9	1.434	5.3	0.008	10	–	–	–
Cc1ccc2c(N)c3c(nc2c1C)CCC3 [Compound 26, 9-Amino-5,6-dimethyl-2,3-dihydro-1H-cyclopenta [1,2-b] quinoline]	–	–	–	–	–	0.003	9.2	1.727	4.4	0.007	11.6	–	–	–
Nc1c2c(nc3ccc(F)cc13)-c1ccccc1CC2 [Compound 27, 7-Amino-9-fluoro-5,6-dihydrobenz[c] acridine]	–	–	–	–	–	–	–	2.171	3.5	0.004	18	> 100	–	–
c1ccc(CNc2c3c(nc4ccccc24)CCC3)cc1 [Compound 28, N-(Phenylmethyl)-9-amino-2,3-dihydro-1H-cyclopenta[1,2-b] quinoline]	–	–	–	–	–	0.002	13.8	1.310	5.8	–	–	–	39.6	0.002
Cc1cc(C)c2c(N)c3c(nc2c1)CCC3 [Compound 30, 9-Amino-6,8-dimethyl-2,3-Dihydro-1H -cyclopenta [1,2-b] quinoline]	–	–	–	–	–	0.035	0.71	0.938	8.1	0.600	0.13	–	–	–
Nc1c2c(nc3c(F)ccc(F)c13)CCC2 [Compound 31, 9-Amino-5,8-difluoro-2,3-dihydro-1H-cyclopenta[1.2b] quinoline]	–	–	–	–	–	0.005	4.8	–	–	0.166	0.47	–	–	–
Nc1c2c(nc3c(F)cc(F)cc13)CCC2 [Compound 32, 9-Amino-5,7-difluoro-2.3dihydro-1H-cyclopenta[1,2b]quinoline]	–	–	–	–	–	0.003	8.8	–	–	0.144	0.54	–	–	–
Nc1c2c(nc3ccccc13)Cc1ccccc1CC2 [Compound 33, 13-amino 1,2-dihydro [1H] benz [7] annuleno [2,3-b] quinoline]	–	–	–	–	–	–	–	0.400	18	0.002	36	–	–	–
Nc1c2c(nc3ccc(F)cc13)-c1ccccc1C2 [Compound 34, 6-Amino-8-Fluoro-4,5-benzo-[5H]-cyclopenta-[1,2-b]-quinoline]	–	–	–	–	–	–	–	0.400	18	0.030	2.9	–	–	–
Nc1c2c(nc3ccc(Cl)cc13)-c1ccccc1C2 [Compound 35, 6-Amino-8-chloro-4,5-benzo-[5H]-cyclopenta-[1,2-b]-quinoline]	–	–	–	–	–	–	–	0.070	114	–	> 100	–	–	–
COc1ccc2nc3c(c(N)c2c1)Cc1ccccc1-3 [Compound 36, 6-Amino-8-methoxy-4,5-benzo-[5H]-cyclopenta-[1,2-b]-quinoline]	–	–	–	–	–	–	–	0.300	29	0.002	47	–	–	–
